{"source": "PubChem BioAssay (NCI)", "assay_in_all_cases": "NCI tumour cell line growth inhibition, 48 h", "key": {"[1]": {"system": "786-0 renal"}, "[2]": {"system": "A498 renal"}, "[3]": {"system": "A549 NSCLC"}, "[4]": {"system": "ACHN renal"}, "[5]": {"system": "BT-549 breast"}, "[6]": {"system": "CAKI-1 renal"}, "[7]": {"system": "CCRF-CEM leukemia"}, "[8]": {"system": "COLO 205 colon"}, "[9]": {"system": "DU-145 prostate"}, "[10]": {"system": "EKVX NSCLC"}, "[11]": {"system": "HCT-116 colon"}, "[12]": {"system": "HCT-15 colon"}, "[13]": {"system": "HOP-62 NSCLC"}, "[14]": {"system": "HS 578T breast"}, "[15]": {"system": "HT29 colon"}, "[16]": {"system": "IGROV1 ovarian"}, "[17]": {"system": "KM12 colon"}, "[18]": {"system": "LOX IMVI melanoma"}, "[19]": {"system": "M14 melanoma"}, "[20]": {"system": "MCF7 breast"}, "[21]": {"system": "MDA-MB-231 breast"}, "[22]": {"system": "MDA-MB-435"}, "[23]": {"system": "MOLT-4 leukemia"}, "[24]": {"system": "NCI-H226 lung"}, "[25]": {"system": "NCI-H23 lung"}, "[26]": {"system": "NCI-H460 lung"}, "[27]": {"system": "NCI-H522 lung"}, "[28]": {"system": "OVCAR-3 ovarian"}, "[29]": {"system": "OVCAR-5 ovarian"}, "[30]": {"system": "OVCAR-8 ovarian"}, "[31]": {"system": "PC-3 prostate"}, "[32]": {"system": "RPMI-8226 leukemia"}, "[33]": {"system": "RXF 393 renal"}, "[34]": {"system": "SF-268 CNS"}, "[35]": {"system": "SF-295 CNS"}, "[36]": {"system": "SF-539 CNS"}, "[37]": {"system": "SK-MEL-2 melanoma"}, "[38]": {"system": "SK-MEL-28 melanoma"}, "[39]": {"system": "SK-MEL-5 melanoma"}, "[40]": {"system": "SK-OV-3 ovarian"}, "[41]": {"system": "SN12C renal"}, "[42]": {"system": "SNB-19 CNS"}, "[43]": {"system": "SW-620 colon"}, "[44]": {"system": "T-47D breast"}, "[45]": {"system": "U251 CNS"}, "[46]": {"system": "UACC-257 melanoma"}, "[47]": {"system": "UACC-62 melanoma"}, "[48]": {"system": "UO-31 renal"}}, "note": "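Exposure lasted 48 hours, with cells grown in 96-well plates and compounds tested at five concentrations. GI50 = concentration required for 50% inhibition of growth. TGI is the concentration that stops growth completely.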"}
{"smiles": "O=C1c2ccccc2-c2c1c1ccccc1c(=O)n2CCNCCCNCCn1c2c(c3ccccc3c1=O)C(=O)c1ccccc1-2", "values": [{"measurement": "GI50", "setting": "[1]", "value": 0.0539, "unit": "µM"}, {"measurement": "TGI", "setting": "[1]", "value": 0.326, "unit": "µM"}, {"measurement": "GI50", "setting": "[2]", "value": 0.432, "unit": "µM"}, {"measurement": "TGI", "setting": "[2]", "value": 3.33, "unit": "µM"}, {"measurement": "GI50", "setting": "[3]", "value": 0.0521, "unit": "µM"}, {"measurement": "TGI", "setting": "[3]", "value": 0.662, "unit": "µM"}, {"measurement": "GI50", "setting": "[4]", "value": 0.00672, "unit": "µM"}, {"measurement": "TGI", "setting": "[4]", "value": 0.699, "unit": "µM"}, {"measurement": "GI50", "setting": "[5]", "value": 0.629, "unit": "µM"}, {"measurement": "TGI", "setting": "[5]", "value": 1.9, "unit": "µM"}, {"measurement": "GI50", "setting": "[6]", "value": 0.563, "unit": "µM"}, {"measurement": "TGI", "setting": "[6]", "value": 1.24, "unit": "µM"}, {"measurement": "GI50", "setting": "[7]", "value": "< 0.005", "unit": "µM"}, {"measurement": "TGI", "setting": "[7]", "value": 1.43, "unit": "µM"}, {"measurement": "GI50", "setting": "[8]", "value": 0.637, "unit": "µM"}, {"measurement": "TGI", "setting": "[8]", "value": 1.59, "unit": "µM"}, {"measurement": "GI50", "setting": "[9]", "value": 0.0736, "unit": "µM"}, {"measurement": "TGI", "setting": "[9]", "value": 0.739, "unit": "µM"}, {"measurement": "GI50", "setting": "[10]", "value": 1.07, "unit": "µM"}, {"measurement": "TGI", "setting": "[10]", "value": 3.07, "unit": "µM"}, {"measurement": "GI50", "setting": "[11]", "value": "< 0.005", "unit": "µM"}, {"measurement": "TGI", "setting": "[11]", "value": 0.262, "unit": "µM"}, {"measurement": "GI50", "setting": "[12]", "value": 0.0221, "unit": "µM"}, {"measurement": "TGI", "setting": "[12]", "value": 0.334, "unit": "µM"}, {"measurement": "GI50", "setting": "[13]", "value": 0.0723, "unit": "µM"}, {"measurement": "TGI", "setting": "[13]", "value": 1.16, "unit": "µM"}, {"measurement": "GI50", "setting": "[14]", "value": 0.738, "unit": "µM"}, {"measurement": "TGI", "setting": "[14]", "value": 2.74, "unit": "µM"}, {"measurement": "GI50", "setting": "[15]", "value": 0.051, "unit": "µM"}, {"measurement": "GI50", "setting": "[16]", "value": 1.19, "unit": "µM"}, {"measurement": "TGI", "setting": "[16]", "value": "> 50", "unit": "µM"}, {"measurement": "GI50", "setting": "[17]", "value": 0.0193, "unit": "µM"}, {"measurement": "GI50", "setting": "[18]", "value": 0.0461, "unit": "µM"}, {"measurement": "TGI", "setting": "[18]", "value": 0.331, "unit": "µM"}, {"measurement": "GI50", "setting": "[19]", "value": 0.257, "unit": "µM"}, {"measurement": "TGI", "setting": "[19]", "value": 0.536, "unit": "µM"}, {"measurement": "GI50", "setting": "[20]", "value": 0.0885, "unit": "µM"}, {"measurement": "GI50", "setting": "[21]", "value": 0.161, "unit": "µM"}, {"measurement": "TGI", "setting": "[21]", "value": 0.548, "unit": "µM"}, {"measurement": "GI50", "setting": "[22]", "value": 0.115, "unit": "µM"}, {"measurement": "TGI", "setting": "[22]", "value": 1.1, "unit": "µM"}, {"measurement": "GI50", "setting": "[23]", "value": "< 0.005", "unit": "µM"}, {"measurement": "TGI", "setting": "[23]", "value": "> 50", "unit": "µM"}, {"measurement": "GI50", "setting": "[24]", "value": 0.64, "unit": "µM"}, {"measurement": "TGI", "setting": "[24]", "value": 1.66, "unit": "µM"}, {"measurement": "GI50", "setting": "[25]", "value": 0.249, "unit": "µM"}, {"measurement": "TGI", "setting": "[25]", "value": 1.13, "unit": "µM"}, {"measurement": "GI50", "setting": "[26]", "value": "< 0.005", "unit": "µM"}, {"measurement": "TGI", "setting": "[26]", "value": "> 50", "unit": "µM"}, {"measurement": "GI50", "setting": "[27]", "value": 2.91, "unit": "µM"}, {"measurement": "TGI", "setting": "[27]", "value": 14.1, "unit": "µM"}, {"measurement": "GI50", "setting": "[28]", "value": 0.362, "unit": "µM"}, {"measurement": "TGI", "setting": "[28]", "value": 1.12, "unit": "µM"}, {"measurement": "GI50", "setting": "[29]", "value": 0.42, "unit": "µM"}, {"measurement": "TGI", "setting": "[29]", "value": 1.1, "unit": "µM"}, {"measurement": "GI50", "setting": "[30]", "value": 0.0101, "unit": "µM"}, {"measurement": "TGI", "setting": "[30]", "value": 0.361, "unit": "µM"}, {"measurement": "GI50", "setting": "[31]", "value": 0.293, "unit": "µM"}, {"measurement": "TGI", "setting": "[31]", "value": 1.24, "unit": "µM"}, {"measurement": "GI50", "setting": "[32]", "value": 0.00933, "unit": "µM"}, {"measurement": "TGI", "setting": "[32]", "value": 0.259, "unit": "µM"}, {"measurement": "GI50", "setting": "[33]", "value": "< 0.005", "unit": "µM"}, {"measurement": "TGI", "setting": "[33]", "value": 0.577, "unit": "µM"}, {"measurement": "GI50", "setting": "[34]", "value": 0.156, "unit": "µM"}, {"measurement": "TGI", "setting": "[34]", "value": 6.81, "unit": "µM"}, {"measurement": "GI50", "setting": "[35]", "value": 0.00771, "unit": "µM"}, {"measurement": "TGI", "setting": "[35]", "value": 0.368, "unit": "µM"}, {"measurement": "GI50", "setting": "[36]", "value": 0.0848, "unit": "µM"}, {"measurement": "TGI", "setting": "[36]", "value": 1.36, "unit": "µM"}, {"measurement": "GI50", "setting": "[37]", "value": 0.514, "unit": "µM"}, {"measurement": "TGI", "setting": "[37]", "value": 2.2, "unit": "µM"}, {"measurement": "GI50", "setting": "[38]", "value": 0.0667, "unit": "µM"}, {"measurement": "TGI", "setting": "[38]", "value": "> 50", "unit": "µM"}, {"measurement": "GI50", "setting": "[39]", "value": 1.75, "unit": "µM"}, {"measurement": "TGI", "setting": "[39]", "value": 7.9, "unit": "µM"}, {"measurement": "GI50", "setting": "[40]", "value": 1.21, "unit": "µM"}, {"measurement": "TGI", "setting": "[40]", "value": 4.83, "unit": "µM"}, {"measurement": "GI50", "setting": "[41]", "value": 0.011, "unit": "µM"}, {"measurement": "TGI", "setting": "[41]", "value": 0.436, "unit": "µM"}, {"measurement": "GI50", "setting": "[42]", "value": 0.389, "unit": "µM"}, {"measurement": "TGI", "setting": "[42]", "value": "> 50", "unit": "µM"}, {"measurement": "GI50", "setting": "[43]", "value": "< 0.005", "unit": "µM"}, {"measurement": "TGI", "setting": "[43]", "value": 0.58, "unit": "µM"}, {"measurement": "GI50", "setting": "[44]", "value": 0.719, "unit": "µM"}, {"measurement": "TGI", "setting": "[44]", "value": 2.12, "unit": "µM"}, {"measurement": "GI50", "setting": "[45]", "value": 0.146, "unit": "µM"}, {"measurement": "TGI", "setting": "[45]", "value": 0.371, "unit": "µM"}, {"measurement": "GI50", "setting": "[46]", "value": 1.17, "unit": "µM"}, {"measurement": "TGI", "setting": "[46]", "value": 2.91, "unit": "µM"}, {"measurement": "GI50", "setting": "[47]", "value": 0.362, "unit": "µM"}, {"measurement": "TGI", "setting": "[47]", "value": 1.16, "unit": "µM"}, {"measurement": "GI50", "setting": "[48]", "value": 0.221, "unit": "µM"}, {"measurement": "TGI", "setting": "[48]", "value": 1, "unit": "µM"}]}
